Source: patent US9636299B2, “Method for treating diabetic retinopathy” (XAVIER UNIVERSITY OF LOUISIANA, priority 2012, dated 2017)
Residues, ends and D or L forms follow the SMILES beside them.

How the values were obtained:
[1] = system: occludin; assay: Occludin expression in high glucose-treated hRMECs (Western blot); type: cell-based, human
Excerpt: (§1) Cell Culture. Primary cultures of human retina microvascular endothelial cells (hRMECs) were purchased from the Applied Cell Biology Research Institute and grown on attachment factor-coated plates in cell systems complete (CSC) medium (Cell Systems, Kirkland, Wash.) supplemented with 20% fetal bovine serum, culture boost (animal derived growth factors) and bac-off (antibiotics). The primary hRMECs were used in their passages 4 to 6. The 18-a.a. apoE mimetic peptide apoEdp (SEQ ID NO:3, Ac-LRKLRKRLLLRKLRKRLL-amide), derived from the human apolipoprotein E receptor-binding region (see SED ID NO:1) between residues 141 and 149, was synthesized (Genemed, Arlington, Tex.) with a purity of greater than 95%. The apoEdp peptide was dissolved in phosphate-buffered saline (“PBS”) at a concentration appropriate for further experimental use. […]
(§2) Western Blotting. […] The total protein concentration was determined using a BCA protein assay kit (Pierce, Rockford, Ill.). […] To ensure the equal loading of protein in each lane, each membrane was stripped and re-probed with an antibody against β-actin, and the chemiluminescence was detected as described previously. After scanning the blots with a flatbed scanner, band intensities were analyzed using ImageJ (NIH) and the relative intensity values were normalized to control values. […]

[2] = system: VEGF-induced ocular angiogenesis; conditions: rabbit eye model, reference 17; cited from earlier work
[3] = system: zona occludin 1 (ZO-1); assay: Streptozotocin-induced diabetic mice, retinal ZO-1 immunohistochemistry; type: in vivo, mouse; conditions: 14 consecutive days, vs untreated diabetic
Procedure: (§3) Streptozotocin (STZ) induced diabetes. Twelve week old C57Bl/6 mice were used for this study. Mice were induced to have diabetes by intraperitoneal injection of 170 μg/g of streptozotocin (Sigma Aldrich, St. Louis, Mo.). Controls were injected with a vehicle (0.01M sodium citrate buffer). On the third day after STZ treatment, mice tail veins were bled to test the hyperglycemic status using blood sugar detection kit (Lifescan; Johnson & Johnson, Milpitas, Calif.). Mice with blood sugar levels of >300 mg/dL on the third day after STZ treatment were considered diabetic. Eye drop treatment containing 1% apoEdp or vehicle PBS was continued 4 times a day for 14 consecutive days. Intra-peritoneal (i/p) injection containing 40 mg/kg of apoEdp or vehicle control PBS was administered once daily for 14 consecutive days. On the 15th day post-treatment, mice were euthanized, their eyes enucleated, and the retinas dissected out to use for mRNA or Western blot analysis.
Immunohistochemistry. […]
To investigate the effect of apoEdp on attenuation of ZO-1 loss, immunohistochemical detection of ZO-1 was performed in formalin-fixed de-paraffinized sections of mouse retinas of different experimental groups. […] The number of positive cells was determined in the high-power field (×400) for the retinas.

[4] = system: heparanase; assay: Streptozotocin-induced diabetic mice, heparanase expression; type: in vivo, mouse; conditions: either 14-day eye drop application or systemic i/p injection
Procedure: as §3
Increased vascular permeability in diabetic retinopathy (DR) is reported to result in a concomitant increase of VEGF. The VEGF pathway is known to play a role in breakdown of the BRB through a mechanism involving the down regulation of tight junction proteins in the retinal microvasculature (20).

[5] = system: heparanase; assay: Heparanase expression in high glucose-treated hRMECs (Western blot); type: cell-based, human; conditions: 30 mM glucose 72 hours, 50 or 100 μM apoEdp
Excerpt: as §1, §2

[6] = system: LRP-1; assay: Streptozotocin-induced diabetic mice, retinal LRP-1 protein; type: in vivo, mouse
Procedure: as §3

For `CC(=O)N[C@@H](CC(C)C)C(=O)N[C@@H](CCCNC(=N)N)C(=O)N[C@@H](CCCCN)C(=O)N[C@@H](CC(C)C)C(=O)N[C@@H](CCCNC(=N)N)C(=O)N[C@@H](CCCCN)C(=O)N[C@@H](CCCNC(=N)N)C(=O)N[C@@H](CC(C)C)C(=O)N[C@@H](CC(C)C)C(=O)N[C@@H](CC(C)C)C(=O)N[C@@H](CCCNC(=N)N)C(=O)N[C@@H](CCCCN)C(=O)N[C@@H](CC(C)C)C(=O)N[C@@H](CCCNC(=N)N)C(=O)N[C@@H](CCCCN)C(=O)N[C@@H](CCCNC(=N)N)C(=O)N[C@@H](CC(C)C)C(=O)N[C@@H](CC(C)C)C(N)=O` [apoEdp, Ac-LRKLRKRLLLRKLRKRLL-amide] (Ac-LRKLRKRLLLRKLRKRLL-NH2), the “Occludin expression versus 30 mM glucose alone” value ([1]; hRMECs co-incubated with 100 μM apoEdp and 30 mM glucose) is given as “greater levels of occludin”, the “High glucose-induced loss of tight junction protein occludin” value ([1]; hRMECs, 30 mM glucose 72 hours, 50 or 100 μM apoEdp) is given as “reduced” and the VEGF-induced ocular angiogenesis [2] is given as “blocks”. The “Number of ZO-1 positive cells in retina (high-power field ×400)” value ([3]; i/p injections 40 mg/kg) was “significantly increased the number of positive cells”, the “Number of ZO-1 positive cells in retina (high-power field ×400)” value ([3]; topical 1% apoEdp drops) was “significantly increased the number of positive cells” and the “Increased expression of heparanase” value [4] was “reversed increased expression of heparanase”. The “High glucose-induced expression of heparanase” value [5] was “suppressed the expression”, the “Retinal LRP-1 protein levels” value ([6]; 1% apoEdp via eye drops) was “significant reduction” and the “Retinal LRP-1 protein levels” value ([6]; 1% apoEdp via intraperitoneal (i/p) injection) was “significant reduction”.
